Experimental data from patent US7993660B2, “Method of increasing immunological effect” (IRx Therapeutics, Inc., priority 2007, dated 2011).
Where a SMILES comes first, the peptide text is derived from it. The star is where a group is joined. Cbz = O=C(OCc1ccccc1)*; CH2F = FC*

Assays:
CD8+ Jurkat cells [1] = assay: Loss of mitochondrial membrane potential (JC-1) in CD8+ Jurkat cells; assay type: cell-based, human; details: IRX-2 1:3 24 hours pre-treatment, MV 10 μg 24 hours
Method: The loss of mitochondrial membrane potential (MMP) as a hallmark of apoptosis was measured using the MITOPROBE JC-1 Assay Kit from Invitrogen (Carlsbad, Calif.). The cationic dye JC-1 (5,5′, 6,6′-tetrachloro-1,1′, 3,3′-tetraethylbenzimidazolylcarbocyanine iodide) exists in healthy cells as a green monomer in the cytosol and also accumulates as red aggregates in the mitochondria. In apoptotic and necrotic cells, JC-1 remains only in the cytoplasm due to mitochondrial depolarization, which can be detected by flow cytometry as a decrease in the red/green fluorescence intensity ratio. CD8+ Jurkat cells or activated T lymphocytes were incubated in PBS containing 2 μM of JC-1 for 30 minutes at 37° C., 5% CO2. […] The cells were analyzed using a flow cytometer immediately after staining.
CD8+ Jurkat cells were analyzed by flow cytometry for a decrease in red fluorescence of the cationic dye JC-1, indicating a loss of MMP. Percentage of JC-1 red-negative cells were determined in cultures of CD8+ Jurkat cells after no treatment, 24 hours treatment with MV (10 μg) alone (no IRX) or pre-treated for 24 hours with IRX-2 (1:3 dilution) or MV in combination with the apoptosis-inhibitor Z-VAD-FMK (pan-caspase inhibitor; conc) or ZB4 (anti-Fas neutralizing mAb, conc/dose). […]

caspase-3 and caspase-7 = assay: Caspase-3/-7 activation (caspase 3/7-FAM flow cytometry, Western immunoblot) in CD8+ Jurkat cells; assay type: cell-based, human; details: IRX-2 1:3 24 hours pre-treatment; zVAD 20 μM; ZB4 10 μg/mL; MV 10 μg 3 hours
Method: To determine total or phosphorylated forms of Akt, Bcl-2, CD3ζ, caspase-3, JAK3, STAT5, FLIP, and Mcl-1, Jurkat CD8+ cells or purified activated CD8+ or CD4+ T-cells were co-incubated with MV at the indicated concentration and/or with IRX-2 (1:3 final dilution) for the indicated period of time at 37° C. The cells were then washed, centrifuged at 4° C. and lysed in equal volumes of ice-cold lysis-buffer (50 mM Tris-HCL pH 7.5, 150 mM NaCl, 0.5% Nonidet P-40) and protease inhibitor cocktail (Pierce Chemical Co., Rockford, Ill.). After lysis, the homogenates were clarified by centrifugation. The supernatants were isolated, and boiled for 5 minutes in 5× Laemmli sample buffer. […]
Total cellular Caspase activity was tested by intracellular staining of activated caspases using a pan caspase inhibitor, CASPACE FITC-VAD-FMK In Situ Marker (Promega, Madison, Wis.). […] Then cells were stained for cell surface receptors, fixed with 1% paraformaldehyde and analyzed by flow cytometry. The specific activation of caspase-3 and caspase-7 was measured using the VYBRANT FAM caspase-3 and -7 Assay Kit from Invitrogen (Carlsbad, Calif.) according to the manufacturers' instructions. […] The cells were analyzed by flow cytometry with the fluorescein measured on the FL1 channel. […]

[2] = test system: activated peripheral blood CD8+ T-lymphocytes; assay: Caspase activation (FITC-VAD-FMK staining, flow cytometry) in activated primary CD8+ T cells; assay type: cell-based, human; details: for inhibition of PCI-13/FasL-MV-induced apoptosis (caspase-VAD-FITC binding): CD8+, IRX-2 1:3 or IL-7, IL-15 100 ng/mL 24 hours, MV 15 μg 24 hours; for mean % of FITC-VAD-FMK+ cells ± SD: CD8+ cells, 24 hours pre-incubation (IRX-2 1:3, IL-2 100 IU/mL, IL-7/IL-15 10 ng/mL)
Description: (§1) The head and neck squamous cell carcinoma (H&NSCC) cell line […] was established in Applicants' laboratory and maintained as previously described. It was retrovirally transfected with the human FasL gene obtained from Dr. S. Nagata (Osaka Biosciences Institute, Osaka, Japan) as previously reported. Supernatants of transfected PCI-13-cells (PCI-13-FasL), which contained both sFasL and the 42 kDa membranous form of FasL, were used as a source of tumor-derived microvesicles (MV). Jurkat cells were obtained from American Tissue Culture Collection (ATCC, Manassas, Va.) and were transfected with CD8. The CD8+ Jurkat cells were cultured in RPMI 1640 medium supplemented with 10% (v/v) fetal bovine serum (FBS), L-glutamine and antibiotics. Human T lymphocytes were isolated from peripheral blood mononuclear cells (PBMC) obtained from consented normal donors. PBMC were isolated by Ficoll-Hypaque density gradient centrifugation (GE Healthcare Bio-Sciences Corp., Piscataway, N.J.), washed and plated for 1 hour at 37° C. in culture flasks (T162) in an atmosphere of 5% CO2 to remove CD14+ monocytes. The non-adherent T-lymphocyte fraction was collected and immediately used for experiments or cryopreserved. CD8+ T cells or CD4+ T cells were purified by positive selection using CD8 MicroBeads or CD4 MicroBeads, respectively (Miltenyi Biotec, Auburn, Calif.) using the AutoMACS system according to the manufacturer's instructions. Purified CD8+ or CD4+ T cells were then cultured for 2-3 days in AIM V medium supplemented with 10% FBS in the presence of beads coated with anti-CD3 and anti-CD28 antibodies (T Cell Activation/Expansion Kit, Miltenyi Biotec). All cells used for the above described experiments were in the log phase of growth.
(§2) CD8+ Jurkat cells or activated normal T lymphocytes were plated at 0.3×10^6 cells per well in a 96-well plate and pre-treated or not with IRX-2 or with recombinant human cytokines at a final concentration of 10 ng/mL or 100 IU/mL for 24 hours (unless otherwise noted). MV (10 μg protein per 0.3×10^6 cells) were then added for 3-24 hours. In some experiments, cells were first co-incubated with MV for 3-24 hours, then washed and treated further with IRX-2 or cytokines or treated for the indicated time period with MV and IRX-2 added simultaneously. In selected blocking experiments, anti-Fas neutralizing monoclonal antibody, ZB-4, the pan-caspase inhibitor, Z-VAD-FMK, or the specific Akt-inhibitor or specific inhibitors for caspase-3, caspase-8 and caspase-9 were added at the indicated concentrations prior to MV co-incubation.
(§3) Four color flow cytometry was performed using a […] (Beckman Coulter) equipped with Expo32 software (Beckman Coulter). Lymphocytes were gated based on morphology, and debris, MV as well as monocytes and granulocytes were excluded, collecting data on at least 10^5 cells. For the analysis of activated primary T lymphocytes, gates were restricted to the CD3^+CD8^+ or CD3^+CD4^+ T-cell subsets. Data was analyzed using Coulter EXPO 32vl.2 analysis software.
(§4) Total cellular Caspase activity was tested by intracellular staining of activated caspases using a pan caspase inhibitor, CASPACE FITC-VAD-FMK In Situ Marker (Promega, Madison, Wis.). Cells were resuspended in PBS and FITC-VAD-FMK was added at a final concentration of 5 μM. The cells were incubated for 20 minutes at 37° C., 5% CO2 and washed with PBS. Then cells were stained for cell surface receptors, fixed with 1% paraformaldehyde and analyzed by flow cytometry. The specific activation of caspase-3 and caspase-7 was measured using the VYBRANT FAM caspase-3 and -7 Assay Kit from Invitrogen (Carlsbad, Calif.) according to the manufacturers' instructions. Briefly, cells were resuspended in PBS and stained with a 150× dilution of the carboxyfluorescein (FAM)-labeled FMK-caspase inhibitor for 60 minutes at 37° C., 5% CO2. Then the cells were washed in wash buffer and fixed with 1% paraformaldehyde.

[3] = test system: activated peripheral blood CD4+ T-lymphocytes; assay: Caspase activation (FITC-VAD-FMK staining, flow cytometry) in activated primary CD4+ T cells; assay type: cell-based, human; details: for inhibition of PCI-13/FasL-MV-induced apoptosis (caspase-VAD-FITC binding): CD4+, IRX-2 1:3 or IL-7, IL-15 100 ng/mL 24 hours, MV 15 μg 24 hours; for mean % of FITC-VAD-FMK+ cells ± SD: CD4+ cells, 24 hours pre-incubation (IRX-2 1:3, IL-2 100 IU/mL, IL-7/IL-15 10 ng/mL)
Description: as §1, §2, §3, §4

CD8+ Jurkat cells [4] = assay type: cell-based; details: 24 hours pre-treatment (IRX-2 1:3; IL-7, IL-15 10 ng/mL), PCI-13/FasL-MV 15 μg 3 hours; no IRX-2 lane 50%
Method: as §2
Total cellular Caspase activity was tested by intracellular staining of activated caspases using a pan caspase inhibitor, CASPACE FITC-VAD-FMK In Situ Marker (Promega, Madison, Wis.). […] Then cells were stained for cell surface receptors, fixed with 1% paraformaldehyde and analyzed by flow cytometry. The specific activation of caspase-3 and caspase-7 was measured using the VYBRANT FAM caspase-3 and -7 Assay Kit from Invitrogen (Carlsbad, Calif.) according to the manufacturers' instructions. […]

[5] = Table 2A MV-induced apoptosis, then 10 μg MV 24 hours
[6] = Table 2B CH-11 Ab-induced apoptosis, then 400 ng/mL CH-11 Ab 24 hours

Row | Compound | MV-induced loss of mitochondrial membrane potential (JC-1 red-negative cells) (CD8+ Jurkat cells [1]) | MV-induced induction of caspase-3 and -7 activity (caspase-3/-7-FAM MFI) (caspase-3 and caspase-7) | inhibition of PCI-13/FasL-MV-induced apoptosis (caspase-VAD-FITC binding) [2] | mean % of FITC-VAD-FMK+ cells ± SD [2, 5] [%] | mean % of FITC-VAD-FMK+ cells ± SD [2, 6] [%] | inhibition of PCI-13/FasL-MV-induced apoptosis (caspase-VAD-FITC binding) [3] | mean % of FITC-VAD-FMK+ cells ± SD [3, 5] [%] | mean % of FITC-VAD-FMK+ cells ± SD [3, 6] [%] | apoptotic cells (activated caspase-VAD-FITC binding CD8+ Jurkat cells) (CD8+ Jurkat cells [4])
1 | COC(=O)C[C@H](NC(=O)[C@H](C)NC(=O)[C@@H](NC(=O)OCc1ccccc1)C(C)C)C(=O)CF [zVAD] (Cbz-Val-Ala-Asp(OMe)-CH2F) | block was comparable to that provided by the two inhibitors | completely prevented |  |  |  |  |  |  | 
2 | IL-7: human recombinant survival cytokine, purchased from Peprotech |  |  | similarly effective compared to IRX-2 | 49.5 ± 3.5 | 37.7 ± 1.4 | similarly effective compared to IRX-2 | 34.5 ± 1.9 | 31.8 ± 10.6 | neither IL-7 nor IL-15 alone was able to reduce the level of apoptosis below the control MV-induced level
3 | IL-15: human recombinant survival cytokine, purchased from Peprotech |  |  | similarly effective compared to IRX-2 | 16.8 ± 6.2 | 28.8 ± 3.1 | similarly effective compared to IRX-2 | 16.7 ± 2.1 | 21.1 ± 5.3 | neither IL-7 nor IL-15 alone was able to reduce the level of apoptosis below the control MV-induced level
